pIC50: −log10 of the molar value.
Molecular target: PD-1/PD-L1 (Homo sapiens, UniProt Q9NZQ7)
Assay: TR-FRET PD-1/PD-L1 binding inhibition at the molecular level (free proteins)
Conditions: Tag1-PD-L1 and Tag2-PD-1 proteins, twelve concentrations from 200 nM, 2 hours at room temperature, read-out: FRET assay (IC50)
Outline: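 HTRF read-out at 665/620 nm after 2 h at room temperature. Detection used anti-Tag1 Eu cryptate plus anti-Tag2 XL665 antibodies. Tagged PD-L1 and PD-1 proteins were pre-mixed with compound across twelve […] 1:2 dilutions starting at 200 nM.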

Chain of PD-1/PD-L1 (Q9NZQ7 19-238 limits assumed): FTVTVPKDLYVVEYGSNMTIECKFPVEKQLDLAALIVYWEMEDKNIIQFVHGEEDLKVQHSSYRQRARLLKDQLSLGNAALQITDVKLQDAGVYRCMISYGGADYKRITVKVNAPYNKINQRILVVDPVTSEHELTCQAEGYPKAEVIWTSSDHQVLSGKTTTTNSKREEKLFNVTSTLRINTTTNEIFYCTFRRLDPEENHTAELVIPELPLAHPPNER

SMILES	pIC50
O=C(Nc1cccc(-c2cccc(Nc3nccc4cc(CN5CC[C@@H](O)C5)cnc34)c2Cl)c1Cl)c1cc2n(n1)CCCC2N1CCCC1=O (stereo partly drawn) [Compound 240, N-(2,2'-dichloro-3'-((3-(((R)-3-hydroxypyrrolidin-1-yl)methyl)-1,7-naphthyridin-8-yl)amino)-[1,1'-biphenyl]-3-yl)-4-(2-oxopyrrolidin-1-yl)-4,5,6,7-tetrahydropyrazolo[1,5-a]pyridine-2-carboxamide]	7.00 to 8.00
O=C1CCC2(CN(C3CCCn4nc(C(=O)Nc5cccc(-c6cccc(Nc7nccc8cc(CN9CC[C@@H](O)C9)cnc78)c6Cl)c5Cl)cc43)C2)N1 (stereo partly drawn) [Compound 238, N-(2,2'-dichloro-3'-((3-(((R)-3-hydroxypyrrolidin-1-yl)methyl)-1,7-naphthyridin-8-yl)amino)-[1,1'-biphenyl]-3-yl)-4-(6-oxo-2,5-diazaspiro[3.4]octan-2-yl)-4,5,6,7-tetrahydropyrazolo[1,5-a]pyridine-2-carboxamide]	7.00 to 8.00
COc1cc(-c2cccc(-c3cccc(NC(=O)c4cc5n(n4)CCCC5O)c3Cl)c2Cl)cc(F)c1CNC[C@@H]1CCC(=O)N1 (stereo partly drawn) [Compound 119, N-(2,2'-dichloro-3"-fluoro-5"-methoxy-4"-(((((S)-5-oxopyrrolidin-2-yl)methyl)amino)methyl)-[1,1':3',1"-terphenyl]-3-yl)-4-hydroxy-4,5,6,7-tetrahydropyrazolo[1,5-a]pyridine-2-carboxamide]	7.00 to 8.00
Cc1c(Nc2nccc3cc(CN4CC[C@@H](O)C4)cnc23)cccc1-c1cccc(NC(=O)c2cc3n(n2)CCCC3NCCO)c1Cl (stereo partly drawn) [Compound 28, N-(2-chloro-3'-((3-(((R)-3-hydroxypyrrolidin-1-yl)methyl)-1,7-naphthyridin-8-yl)amino)-2'-methyl-[1,1'-biphenyl]-3-yl)-4-((2-hydroxyethyl)amino)-4,5,6,7-tetrahydropyrazolo[1,5-a]pyridine-2-carboxamide]	> 8.00
COc1cc(C(=O)Nc2cccc(-c3cccc(NC(=O)c4cc5n(n4)CCCC5N4CC[C@@H](C(=O)O)C4)c3Cl)c2Cl)cc(F)c1CN1CC[C@@H](O)C1 (stereo partly drawn) [Compound 196, (3R)-1-(2-((2,2'-dichloro-3'-(3-fluoro-4-(((R)-3-hydroxypyrrolidin-1-yl)methyl)-5-methoxybenzamido)-[1,1'-biphenyl]-3-yl)carbamoyl)-4,5,6,7-tetrahydropyrazolo[1,5-a]pyridin-4-yl)pyrrolidine-3-carboxylic acid]	> 8.00
Cc1c(NC(=O)c2cc3n(n2)CCCC3NC[C@@H]2CCC(=O)N2)cccc1-c1cccc(NC(=O)c2nc3c(n2C)CCN(CCC24CCC(C(=O)O)(CC2)C4)C3)c1C (stereo partly drawn) [Compound 49, 4-(2-(2-((2,2'-dimethyl-3'-(4-((((S)-5-oxopyrrolidin-2-yl)methyl)amino)-4,5,6,7-tetrahydropyrazolo[1,5-a]pyridine-2-carboxamido)-[1,1'-biphenyl]-3-yl)carbamoyl)-1-methyl-6,7-dihydro-1H-imidazo[4,5-c]pyridin-5(4H)-yl)ethyl)bicyclo[2.2.1]heptane-1-carboxylic acid]	> 8.00
CC(=O)NCCNC1CCCn2nc(C(=O)Nc3cccc(-c4cccc(Nc5nccc6cc(CN7CC[C@@H](O)C7)cnc56)c4Cl)c3C)cc21 (stereo partly drawn) [Compound 39, 4-((2-acetamidoethyl)amino)-N-(2'-chloro-3'-((3-(((R)-3-hydroxypyrrolidin-1-yl)methyl)-1,7-naphthyridin-8-yl)amino)-2-methyl-[1,1'-biphenyl]-3-yl)-4,5,6,7-tetrahydropyrazolo[1,5-a]pyridine-2-carboxamide]	> 8.00
Cc1c(NC(=O)c2ccc(CNCCO)cn2)cccc1-c1cccc(NC(=O)c2cc3n(n2)CCCC3N2CCC(C(=O)O)CC2)c1C (centres unmarked) [Compound 79, 1-(2-((3'-(5-(((2-hydroxyethyl)amino)methyl)picolinamido)-2,2'-dimethyl-[1,1'-biphenyl]-3-yl)carbamoyl)-4,5,6,7-tetrahydropyrazolo[1,5-a]pyridin-4-yl)piperidine-4-carboxylic acid]	> 8.00
N#Cc1cc(CN2CC[C@@H](C(=O)O)C2)cc2nc(-c3cccc(-c4cccc(NC(=O)c5cc6n(n5)CCCC6NC[C@@H]5CCC(=O)N5)c4Cl)c3Cl)oc12 (stereo partly drawn) [Compound 68, (3R)-1-((7-cyano-2-(2,2'-dichloro-3'-(4-((((S)-5-oxopyrrolidin-2-yl)methyl)amino)-4,5,6,7-tetrahydropyrazolo[1,5-a]pyridine-2-carboxamido)-[1,1'-biphenyl]-3-yl)benzo[d]oxazol-5-yl)methyl)pyrrolidine-3-carboxylic acid]	> 8.00
Cc1c(NC(=O)c2ccc(CNCCO)cn2)cccc1-c1cccc(NC(=O)c2cc3n(n2)CCCC3NC(C)(C)C(=O)O)c1C (centres unmarked) [Compound 80, 2-((2-((3'-(5-(((2-hydroxyethyl)amino)methyl)picolinamido)-2,2'-dimethyl-[1,1'-biphenyl]-3-yl)carbamoyl)-4,5,6,7-tetrahydropyrazolo[1,5-a]pyridin-4-yl)amino)-2-methylpropanoic acid]	> 8.00
Cc1c(NC(=O)c2cc3n(n2)CCCC3N2CC[C@@H](O)C2)cccc1-c1cccc(NC(=O)c2nc3c(n2C)CCN(CCC24CCC(C(=O)O)(CC2)C4)C3)c1C (stereo partly drawn) [Compound 47, 4-(2-(2-((3'-(4-((R)-3-hydroxypyrrolidin-1-yl)-4,5,6,7-tetrahydropyrazolo[1,5-a]pyridine-2-carboxamido)-2,2'-dimethyl-[1,1'-biphenyl]-3-yl)carbamoyl)-1-methyl-6,7-dihydro-1H-imidazo[4,5-c]pyridin-5(4H)-yl)ethyl)bicyclo[2.2.1]heptane-1-carboxylic acid]	> 8.00
Cc1c(NC(=O)c2ccc(CNCCO)cn2)cccc1-c1cccc(NC(=O)c2cc3n(n2)CCCC3O)c1C (centres unmarked) [Compound 71, 4-hydroxy-N-(3'-(5-(((2-hydroxyethyl)amino)methyl)picolinamido)-2,2'-dimethyl-[1,1'-biphenyl]-3-yl)-4,5,6,7-tetrahydropyrazolo[1,5-a]pyridine-2-carboxamide]	> 8.00
O=C(Nc1cccc(-c2cccc(Nc3nccc4cc(CN5CC[C@@H](O)C5)cnc34)c2Cl)c1Cl)c1cc2n(n1)CCCC2NC1CCOCC1 (stereo partly drawn) [Compound 231, N-(2,2'-dichloro-3'-((3-(((R)-3-hydroxypyrrolidin-1-yl)methyl)-1,7-naphthyridin-8-yl)amino)-[1,1'-biphenyl]-3-yl)-4-((tetrahydro-2H-pyran-4-yl)amino)-4,5,6,7-tetrahydropyrazolo[1,5-a]pyridine-2-carboxamide]	7.00 to 8.00
O=C(O)CNC1CCCn2nc(C(=O)Nc3cccc(-c4cccc(Nc5nc(C(F)F)nc6cc(CN7CC[C@@H](O)C7)cnc56)c4Cl)c3Cl)cc21 (stereo partly drawn) [Compound 143, 2-((2-((2,2'-dichloro-3'-((2-(difluoromethyl)-7-(((R)-3-hydroxypyrrolidin-1-yl)methyl)pyrido[3,2-d]pyrimidin-4-yl)amino)-[1,1'-biphenyl]-3-yl)carbamoyl)-4,5,6,7-tetrahydropyrazolo[1,5-a]pyridin-4-yl)amino)acetic acid]	> 8.00

The remaining lines, values ahead:

pIC50	SMILES
> 8.00	CN(C)[C@H]1CCCn2nc(C(=O)Nc3cccc(-c4cccc(NC(=O)c5cc6n(n5)CCC[C@@H]6N(C)C)c4Cl)c3Cl)cc21 [Compound 311, (4S,4'S)-N,N'-(2,2'-dichloro-[1,1'-biphenyl]-3,3'-diyl)bis(4-(dimethylamino)-4,5,6,7-tetrahydropyrazolo[1,5-a]pyridine-2-carboxamide)]
7.00 to 8.00	O=C(Nc1cccc(-c2cccc(Nc3nc(C(F)(F)F)nc4cc(CN5CC[C@@H](O)C5)cnc34)c2Cl)c1Cl)c1cc2n(n1)CCC[C@@H]2N1CC[C@@H](O)C1 [Compound 338, (S)-N-(2,2'-dichloro-3'-((7-(((R)-3-hydroxypyrrolidin-1-yl)methyl)-2-(trifluoromethyl)pyrido[3,2-d]pyrimidin-4-yl)amino)-[1,1'-biphenyl]-3-yl)-4-((R)-3-hydroxypyrrolidin-1-yl)-4,5,6,7-tetrahydropyrazolo[1,5-a]pyridine-2-carboxamide]
> 8.00	Cc1c(NC(=O)c2cc3n(n2)CCC[C@@H]3NCCO)cccc1-c1cccc(NC(=O)c2cc3n(n2)CCC[C@@H]3NCCO)c1C [Compound 253, (4S,4'S)-N,N'-(2,2'-dimethyl-[1,1'-biphenyl]-3,3'-diyl)bis(4-((2-hydroxyethyl)amino)-4,5,6,7-tetrahydropyrazolo[1,5-a]pyridine-2-carboxamide)]
7.00 to 8.00	Cc1c(NC(=O)c2cc3n(n2)CCC[C@H]3N2CCC(C(=O)O)CC2)cccc1-c1cccc(Nc2nc(C(F)F)nc3cc(CN4CC[C@@H](O)C4)cnc23)c1C [Compound 268, 1-((R)-2-((3'-((2-(difluoromethyl)-7-(((R)-3-hydroxypyrrolidin-1-yl)methyl)pyrido[3,2-d]pyrimidin-4-yl)amino)-2,2'-dimethyl-[1,1'-biphenyl]-3-yl)carbamoyl)-4,5,6,7-tetrahydropyrazolo[1,5-a]pyridin-4-yl)piperidine-4-carboxylic acid]
7.00 to 8.00	O=C(Nc1cccc(-c2cccc(Nc3nc(C(F)F)nc4cccnc34)c2Cl)c1Cl)c1cc2n(n1)CCC[C@@H]2N1CCC(C(=O)O)CC1 (stereo in doubt) [Compound 290, (S)-1-(2-((2,2'-dichloro-3'-((2-(difluoromethyl)pyrido[3,2-d]pyrimidin-4-yl)amino)-[1,1'-biphenyl]-3-yl)carbamoyl)-4,5,6,7-tetrahydropyrazolo[1,5-a]pyridin-4-yl)piperidine-4-carboxylic acid]
7.00 to 8.00	O=C(Nc1cccc(-c2cccc(Nc3nccc4cc(CN5CC[C@@H](O)C5)cnc34)c2Cl)c1Cl)c1cc2n(n1)CCN(CCO)C2 [Compound 323, (R)-N-(2,2'-dichloro-3'-((3-((3-hydroxypyrrolidin-1-yl)methyl)-1,7-naphthyridin-8-yl)amino)-[1,1-biphenyl]-3-yl)-5-(2-hydroxyethyl)-4,5,6,7-tetrahydropyrazolo[1,5-a]pyrazine-2-carboxamide]

Source: patent EP4755888A1 (ILAb Co., Ltd., priority 2023, dated 2025)
